The values below come from patent US20240217917A1, “PHOTOLYTICALLY DEGRADABLE COMPOUNDS AND METHODS” (The University of Stavanger, priority 2021, published 2024).

In brackets after ≈: the same amount, converted by molar mass.

Data set [1] is described as follows: Photolysis of compounds 1-5, 125 W medium pressure mercury vapour lamp, conversion by 1H-NMR. It is filed as physicochemical. The note with it: for stability under irradiation at lower pH: pH values lower than 11. The method, then: Following the procedure by Wan and Muralidharan (Wan, P.; Muralidharan, S. J. Am. Chem. Soc. 1988, 110 (13), 4336-4345) aminol 1 (compound 1) was photolysed in acetonitrile and water (7:3, v:v) at the appropriate pH using a 125 W medium pressure mercury vapour lamp. Seven experiments were performed from pH 13 to pH 1 with a concentration of around 0.68 mM, and each reaction was irradiated for. 2 hours Following liquid-liquid extraction with DCM, all reaction mixtures were analysed with ^1H-NMR spectroscopy. Initially it was expected that a mechanism similar to the nitrophenethyl alcohols (Scheme 3) would occur and the expected products would therefore be N-methyl-p-nitroaniline, phenylacetaldehyde, 2-(p-nitroaniline)acetaldehyde, and toluene
Because of this, it seems likely that following excitation to the singlet state and intersystem crossing (ISC) to the triplet state, a proton is abstracted and initiates decomposition. Two products were identified from the NMR data; p-nitroaniline and benzaldehyde. This means that there are two carbon atoms in the starting material unaccounted for (Scheme 13). A reasonable hypothesis is that they remain in the aqueous phase during extraction as formaldehyde or glyoxal.

Another data set can be described thus: UV-vis spectra. The data set is classed as physicochemical. The settings on record: ethanol as solvent. The method, then: As illustrated in the UV-vis spectra, where the nitro group is positioned greatly influences the λmax. With nitro substitution on the aniline these values are around 380 and 400 nm, whereas for the two other compounds a hypsochromic shift is observed all the way down to 248 nm.
UV-vis spectra were obtained on an Agilent 8453 single-beam UV-vis spectrophotometer with a deuterium-discharge lamp for the UV range and a tungsten lamp for the visible wavelength range. Samples were analysed in an Agilent open-top UV quartz cell (10 mm, 3.0 mL) with ethanol as solvent. Wavelengths are reported in nm and molar attenuation coefficients in M^−1cm^−1.

The subject of a further data set is S. Agalactiae. Kind of data set: Minimum inhibitory concentration (MIC) screen, OD 600 nm. Also noted: key to Minimum inhibitory concentration, S. Agalactiae: I = inactive, i.e. below the activity threshold. The settings on record: screened at 100-1.6 μM; for MIC: Streptococcus agalactiae. The data set is classed as cell-based. The method, then: (§1) With compounds 6-9 and the crude degradation mixtures in hand, the minimum inhibitory concentration (MIC) was screened against a number of gram-positive and gram-negative bacteria, including E. faecalis, E. coli, P. aeruginosa, S. aureus, S. agalactiae, and S. epidermidis. To determine the activity, optical density (OD) at 600 nm was measured to estimate the concentration of bacteria at concentrations from 1.6 -100 μM. Values below 0.05 are counted as active and indicates inhibition of growth, illustrated by plotting OD against the concentration for compounds 6-9, (FIG. 9). […] Black stapled lines at 0.05 for MIC and 30% for biofilm formation indicate activity threshold values. […] No activity was observed against the gram-negative bacteria (Table 3).

Data set [2] is described as follows: Photolysis of compounds 6-9, 6 W low-pressure mercury vapor lamp, conversion by 1H-NMR. The data set is classed as physicochemical. The note with it: pH 13; acetonitrile/NaOH solution 30/70; 254 nm low-pressure lamp; 24 hours. As to the method:
Aminol 6-9 (compounds 6-9) were dissolved in acetonitrile and diluted with a sodium hydroxide solution at pH 13 (30/70, V/V). Since all the compounds have strong absorption bands around 250 nm (FIG. 8), a 6 W low-pressure mercury vapor lamp was chosen as the irradiation source, since it emits mainly at 254 nm. All reactions were carried out in a 75 mL gas inlet flask (˜0.7 mM) under a constant stream of nitrogen with a quartz well cold finger for 24 hours.
Following aqueous workup, the reaction mixtures were analysed with ^1H-NMR spectroscopy. […] The photodegradation reaction for compound 6 can be seen in Scheme 21. Additionally, the two doublets at 7.47 and 8.13 ppm (Hc and Ha) have disappeared into a complicated multiplet, and the aliphatic protons around 3 ppm are no longer visible (FIG. 6).

Data set [3] is described as follows: Solubility observed as precipitation in the MIC test. It is filed as physicochemical. The settings on record: higher concentrations in the S. agalactiae MIC test. As to the method: as §1
A further data set concerns S. Aureus. In words: Minimum inhibitory concentration (MIC) screen, OD 600 nm. It is filed as cell-based. Also noted: key to Minimum inhibitory concentration, S. Aureus: I = inactive, i.e. below the activity threshold. The note with it: screened at 100-1.6 μM; for MIC: Staphylococcus aureus. As to the method: as §1
For data set [4], the system named is S. Epidermidis. Kind of data set: Biofilm inhibition. The data set is classed as cell-based. The note with it: threshold 30% biofilm formation. The method, then: as §1
The test system of data set [5] is S. Epidermidis. Kind of data set: Minimum inhibitory concentration (MIC) screen, OD 600 nm. The data set is classed as cell-based. Also on record: key to Minimum inhibitory concentration, S. Epidermidis: I = inactive, i.e. below the activity threshold. The note with it: screened at 100-1.6 μM. The method, then:
as §1

The nature of data set [6]: Photolysis of compounds 1-5, 125 W medium pressure mercury vapour lamp, conversion by 1H-NMR. The data set is classed as physicochemical. The note with it: same conditions.
[7] abbreviates: pH 11, 2 hours irradiation, acetonitrile and water (7:3), medium pressure mercury lamp.
[8] abbreviates: pH 13, 2 hours irradiation, acetonitrile and water (7:3), medium pressure mercury lamp.

In [1] (setting [7]), `O=[N+]([O-])c1cccc(NCC(O)Cc2ccccc2)c1` (centres unmarked) [Compound 2] registered a conversion after photolysis of 17%. This molecule returned a conversion after photolysis in data set [1] (setting [8]) of 17%. Besides, the “stability under irradiation at lower pH” value in [1] is recorded as “remained stable”. In the data set “UV-vis spectra”, the E worked out at 1331.3 M⁻¹ cm⁻¹ and the λmax came out at 400 nm.
In [1] (setting [8]), `O=[N+]([O-])c1ccc(CC(O)CNc2ccccc2)cc1` (centres unmarked) [Compound 3] gave a conversion after photolysis of 40%. In addition, in “UV-vis spectra”, the E is 15066.6 M⁻¹ cm⁻¹ and the λmax amounted to 248 nm.
`O=[N+]([O-])c1ccc(F)c(CC(O)CNc2cc(Cl)c(OC(F)(F)C(F)C(F)(F)F)cc2Cl)c1F` (centres unmarked) [Compound 8, 1-((2,5-Dichloro-4-(1,1,2,3,3,3-hexafluoropropoxy)phenyl)amino)-3-(2,6-difluoro-3-nitrophenyl)propan-2-ol] gave an MIC with S. Agalactiae of 6.3 µM (≈ 3.42 µg/mL). Besides, in data set [2], the conversion after photolysis was 56% and the “photodegradation” value is recorded as “complete degradation was not achieved”. For the same molecule, in data set [3], the “solubility” value is “limited solubility”. The “Minimum inhibitory concentration, S. Aureus” value in the data set on S. Aureus is on record as “I”. Moreover, the “biofilm inhibition for S. epidermidis” value with S. Epidermidis [4] was 25 µM. In addition, in the data set with S. Epidermidis [5], the “Minimum inhibitory concentration, S. Epidermidis” value is reported as “I”.
Turning to `O=C(NCC(O)CNc1ccc([N+](=O)[O-])cc1)C(Cl)Cl` (centres unmarked) [Compound 5], the conversion after photolysis in data set [1] (setting [7]) was 68%; in data set [1] (pH 11, 2 hours irradiation, acetonitrile and water (7:3), medium pressure mercury lamp, listed as compound resembling chloramphenicol), 60%; in data set [1] (pH 13), “Full conversion”; in [1] (setting [8]) it was 100%. For the same molecule, the “stability under irradiation at lower pH” value in data set [1] is “remained stable”. In “UV-vis spectra”, the E was found to be 17263.9 M⁻¹ cm⁻¹. For the same molecule, the λmax in “UV-vis spectra” was found to be 382 nm.
With `O=[N+]([O-])c1ccc(F)c(CC(O)CNc2cc(Cl)c(F)c(Cl)c2F)c1F` (centres unmarked) [Compound 7, 1-((3,5-Dichloro-2,4-difluorophenyl)amino)-3-(2,6-difluoro-3-nitrophenyl)propan-2-ol], the “Minimum inhibitory concentration, S. Agalactiae” value in the data set with S. Agalactiae was “I”. In the data set on S. Aureus, this molecule yielded a minimum inhibitory concentration (MIC) of 50 µM (≈ 20.7 µg/mL). Further, the “Minimum inhibitory concentration, S. Epidermidis” value in the data set with S. Epidermidis [5] was “I”.
`O=[N+]([O-])c1cccc(CC(O)CNc2ccccc2)c1` (centres unmarked) [Compound 4] came in with a conversion after photolysis in data set [1] (setting [8]) of 56%. Further, in the data set “UV-vis spectra”, the E was 17018.7 M⁻¹ cm⁻¹ and the λmax is on record as 248 nm.
`O=[N+]([O-])c1ccc(CC(O)CNc2cc(Cl)c(OC(F)(F)C(F)C(F)(F)F)cc2Cl)cc1` (centres unmarked) [Compound 6] came in with a minimum inhibitory concentration (MIC) against S. Agalactiae of 6.3 µM (≈ 3.2 µg/mL). Further, in [2], the “photodegradation” value was “complete conversion”. Moreover, the “solubility” value in [3] is reported as “limited solubility”. In the data set on S. Aureus, the “Minimum inhibitory concentration, S. Aureus” value is listed as “I”. In the data set on S. Epidermidis [4], the “biofilm inhibition for S. epidermidis” value stood at 12.5 µM. In addition, the “Minimum inhibitory concentration, S. Epidermidis” value with S. Epidermidis [5] was “I”.
For `O=[N+]([O-])c1ccc(NCC(O)Cc2ccccc2)cc1` (centres unmarked) [Compound 1], the “conversion after photolysis” value in data set [1] (pH 5, 2 hours irradiation) is “stops completely”; in data set [1] (setting [7]), 100%; in [1] (setting [8]), 100%. In addition, in data set [1] (pH 7, extrapolated from conversion after 2 hours), the “time to full decomposition” value is given as “ca. 6 hours”. Moreover, the “conversion in reference experiments in the dark” value in data set [6] is “no conversion”. Also, the E in “UV-vis spectra” amounted to 1740.0 M⁻¹ cm⁻¹. The same molecule returned a λmax in the data set “UV-vis spectra” of 384 nm.
For the molecule `O=[N+]([O-])c1ccc(F)c(CC(O)CNc2cc(Cl)cc(Cl)c2F)c1F` (centres unmarked) [Compound 9, 1-((3,5-Dichloro-2-fluorophenyl)amino)-3-(2,6-difluoro-3-nitrophenyl)propan-2-ol], the MIC in the data set on S. Agalactiae, in the data set on S. Aureus and in the data set on S. Epidermidis [5] (Staphylococcus epidermidis) was 50 µM (≈ 19.8 µg/mL) throughout.
